Source: patent US5789382A, “Retro-peptide fibroblast growth factor which blocks FGF receptor” (Georgetown University, priority 1993, dated 1998)
Ends that are not written are not given here.

What was measured:
[1] = tested on: human SW-13 cells; test: growth assay with human SW-13 cells (FIG. 2, FIG. 4); format: cell-based; settings: for inhibition of SW-13 cell growth: amounts added as high as 1,000 μg/ml
Text: FIG. 2 illustrates the results of a growth assay conducted with both a peptide of the present invention (retro-peptide) and the antero-peptide sequence thereof.
FIG. 2 illustrates that both the antero-peptide and the retro-peptide are inhibitory in a growth assay with human SW-13 cells.
FIG. 4 illustrates the difference in effect on SW-13 cell growth between a 10-mer peptide sequence of the formula (SEQ ID NO:6): […]
As may be seen from FIG. 4, the 15-mer sequence has an inhibitive effect on SW-13 cell growth with increasing amount added in μg/ml. This effect becomes almost completely inhibiting in amounts added of about 100 μg/ml and greater.

[2] = water solubility; format: physicochemical
Protocol: The present retro-peptide is water-soluble and is administered by any route, especially intravenously, subcutaneously, intraperitonially, intramuscularly, orally and rectally. The peptide may be conveniently administered in dextrose 5% saline or in saline solution.

[3] = tested on: SW-13 cells; test: FGF-stimulated colony formation of SW-13 cells (FIG. 3); format: cell-based, human
Text: FIG. 3 illustrates the competitive mechanism of FGF-dependent growth inhibition by a retro-peptide of the present invention.
(§1) FIG. 3 illustrates the competitive mechanism of FGF-dependent growth inhibition by the retro-peptide of the present invention. […] This clearly establishes the specificity of the FGF-receptor inhibition by the present retro-peptide.
In FIG. 3, "Co" refers to a control, while "A" refers to the antero-peptideand "R" refers to the retro-peptide.

[4] = tested on: normal human cells; test: FGF-stimulated growth of normal human cells; format: cell-based
[5] = tested on: human rhabdomyosarcoma; test: human rhabdomyosarcoma xenograft in athymic nude mice (FIG. 6); format: in vivo
Protocol: Animal studies with human rhabdomyosarcoma growing in athymic nude mice were carried out with the 15 mer peptide. Tumors were allowed to grow subcutaneously and peptide (25 mg/kg of body weight) dissolved in saline was injected for eight days daily intraperitoneally. After three weeks the tumor size in a control group treated only with saline solution was 26.6±6.8 mm^2. The tumor size in the peptide-treated animals was 5.4±1.6 mm^2. […] This is illustrated in FIG. 6.
(§2) Human tumor cells (1 million per mouse) were inoculated in 0.1 ml of saline solution into a mammary fat pad of each mouse. Each group of treatment consisted of 10 animals. One day after the inoculation of tumor cells the animals were treated with a single daily intraperitoneal injection of saline solution (control group) or with the 15-mer retropeptide dissolved in saline solution at a dose of 25 mg per kg body weight (peptide group) or 25 mg per kg body weight of pentosanpolysulfate (pentosan polysulfate group). The treatment with peptide was continued for 8 days due to a currently still limited supply of the peptide. The pentosanpolysulfate treatment was continued throughout the whole observation period.
(§3) The mean ± standard error tumor size is 26.6±6.8 mm^2 (control group) and […] (peptide group). This difference is highly significant (p<0.003) as tested by student's t-test.

[6] = tested on: breast cancer cells; test: growth of cell lines growing independently from FGF; format: cell-based; settings: such as breast cancer cells
Text: as §1

[7] = tested on: human melanoma; test: growth inhibition of human melanoma; format: cell-based; settings: same concentration as in the SW-13 assay
[8] = tolerability in tumor-bearing mice; format: in vivo, athymic nude mice; settings: 25 mg/kg daily i.p. for 8 days
Protocol: as §2, §3

[9] = tested on: human rhabdomyosarcoma; test: growth inhibition of human rhabdomyosarcoma (in vitro); format: cell-based; settings: same concentration as in the SW-13 assay

NH2 --YRSRK--YSSWY-CO2 H [10-mer sequence, reference compound]
inhibition of SW-13 cell growth ([1]; FIG. 4): essentially no such inhibition | inhibition of SW-13 cell growth ([1]; FIG. 4, listed as 10-mer): loss of activity

NH2 --YRSRK--YSSWY-VALKR--CO2 H [15-mer sequence]
amount added at which inhibition of SW-13 cell growth becomes almost complete ([1]; FIG. 4, about 100 μg/ml and greater): about 100 μg/ml

RKLAVYWSSYKRSRY [retro-peptide, NH2 --RKLAV--YWSSY--KRSRY--COOH]
solubility in water [2]: water-soluble | dose-response curve of FGF-stimulated colony formation of SW-13 cells ([3]; competitive mechanism): shifted to the right without affecting the maximum achieved | FGF-stimulated growth of normal human cells [4]: blocks FGF-stimulated growth | mean ± standard error tumor size ([5]; after 24 days of observation, 25 mg/kg daily i.p. for 8 days, saline control 26.6±6.8, p<0.003): 5.0±1.6 mm^2 | tumor size ([5]; after three weeks, 25 mg/kg daily i.p. for eight days, saline control 26.6±6.8, p<0.003): 5.4±1.6 mm^2 | inhibition of cell lines growing independently from FGF [6]: neither of the antero-peptide nor retro-peptide inhibit | effectiveness against human melanoma [7]: effective at the same concentration | inhibition in growth assay with human SW-13 cells ([1]; FIG. 2): inhibitory | potency in SW-13 growth assay relative to the antero-peptide ([1]; FIG. 2, retro-peptide versus antero-peptide): much more potent | body weight and signs of illness [8]: did not lose weight or show any other signs of major illness | tolerability [8]: tolerated the peptide well | effectiveness against human rhabdomyosarcoma [9]: effective at the same concentration

YRSRKYSSWYVALKR [antero-peptide, NH2 --YRSRK--YSSWY--VALKR--COOH, reference compound]
potency in FGF-stimulated SW-13 colony formation relative to the retro-peptide ([3]; antero-peptide versus retro-peptide): significantly less potent | inhibition of cell lines growing independently from FGF [6]: neither of the antero-peptide nor retro-peptide inhibit | inhibition in growth assay with human SW-13 cells ([1]; FIG. 2): inhibitory

pentosanpolysulfate [reference compound]
action on tumor size ([5]; 25 mg/kg daily i.p. throughout the observation period, p<0.05): significant
